Test results: US20210186982A1, “METHODS AND COMPOSITIONS FOR TREATING MELANOMA” (UNIVERSITE NICE SOPHIA ANTIPOLIS, priority 2017, published 2021)

How the values were obtained:
A375 cells = experiment: ROS production (CM-H2DCFDA, flow cytometry); type: cell-based, human; settings: 5 mM NAC with 2 μM b-AP15
Experimental: ROS levels were measured using the redox-sensitive dye CM-H2DCFDA (Thermo Fischer Scientific). After treatment, cells were stained with 10 μM CM-H2DCFDA in PBS for 30 min at 37° C. Cells were washed with PBS and resuspended in PBS 5 mM EDTA/1% BSA. ROS production was analysed using a MACSQuant® Analyzer 10 cytometer (Miltenyi Biotech).

melanoma cell cultures = experiment: Cytotoxicity of b-AP15 in presence of NAC or pan-caspase inhibitor; type: cell-based, human; settings: co-incubation with b-AP15
A375 = experiment: MTS conversion assay, melanoma cell proliferation; type: cell-based, human; settings: 24 h; increasing doses up to 10 μM
Experimental: Cell proliferation was measured by a MTS conversion assay using the CellTiter 96® Aqueous Non-Radioactive Cell Proliferation kit (Promega, Madison Wis.) according to the manufacturer instructions. Cells were seeded in 96-well plates (5×10^4 cells/well) and treated with different reagents for the indicated times and incubated at 37° C. with MTS reagent. The optical density of each sample at 490 nm was determined with a Multiskan FC plate reader (Thermo Fisher Scientific, Waltham, Mass. USA).

[1] = Annexin-V-FITC/7-AAD flow cytometry, cell viability; type: cell-based; settings: human, A375 cells; solvent 87%
Experimental: Cell death was evaluated by flow cytometry following staining with Annexin-V-FITC and 7-AAD (eBiosciences) as previously described 24.

UCHL5 = target: T1, UCHL5 (Homo sapiens, UniProt Q9Y5K5); experiment: DUB trap assay (HA-Ub-VS probe, anti-UCHL5 immunoblot); type: cell-based
T1 construct: 20 μg of protein extracts were incubated for 25 min at 37° C. with 2 μM HA-Ub-VS; endogenous in cells; host or cells: A375 melanoma cells; cell lysates
T1 sequence (Q9Y5K5 whole entry): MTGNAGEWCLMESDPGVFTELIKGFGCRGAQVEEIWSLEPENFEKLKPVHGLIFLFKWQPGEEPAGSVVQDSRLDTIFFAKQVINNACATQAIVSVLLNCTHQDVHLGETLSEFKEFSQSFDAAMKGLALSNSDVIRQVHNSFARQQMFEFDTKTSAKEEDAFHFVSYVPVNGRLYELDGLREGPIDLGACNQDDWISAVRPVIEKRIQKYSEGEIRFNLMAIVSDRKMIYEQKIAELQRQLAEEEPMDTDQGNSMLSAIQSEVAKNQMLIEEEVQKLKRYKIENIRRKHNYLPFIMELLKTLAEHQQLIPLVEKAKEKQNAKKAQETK
Experimental: (§1) Cells were harvested, washed with PBS and pellets were dried then freezed (−80° C.) and subsequently lysed in ice-cold buffer containing 50 mM Tris (pH 7.4), 5 mM MgCl2, 250 mM sucrose, 1 mM DTT, 2 mM ATP, and 1 mM PMSF and mild sonication. Lysates were cleared by centrifugation, and 20 μg of protein extracts were incubated for 25 min at 37° C. with 2 μM HA-Ub-VS (Boston Biochem, Cambridge, Mass.). After boiling in reducing sample buffer, labelled cell lysates were subjected to immunoblot analysis as described above using the indicated antibodies.

A375 and Me1501 cells = experiment: Cytotoxicity, cytotox green reagent (IncuCyte); type: cell-based, human; settings: 72 h; compared with b-AP15
Experimental: FIG. 8. USP14 inhibition induces growth inhibition and cytotoxicity on melanoma cell lines. (A) Growth curve of A375 treated with 2 μM b-AP15, 2 μM VLX1570 or […] bortezomib (BTZ). Data were acquired in triplicate during 3 days using an IncuCyte Zoom. (B) and (C) Cytotoxic effects of USP14 inhibition on melanoma cells. A375 and Me1501 cells were treated with the indicated doses of b-AP15 or VLX1570, and stained with cytotox green reagent (100 nM). Cytotoxicity was monitored in triplicate for 72 h with an IncuCyte imaging system.

USP14 = target: T2, USP14 (Homo sapiens, UniProt P54578); experiment: DUB trap assay (HA-Ub-VS probe, anti-USP14 immunoblot); type: cell-based; settings: A375 melanoma cells
T2 construct: endogenous in cells; host or cells: A375 (also 1205Lu, 501Mel, SKMel28, 451Lu) melanoma cells; cell lysates
T2 sequence (P54578 whole entry): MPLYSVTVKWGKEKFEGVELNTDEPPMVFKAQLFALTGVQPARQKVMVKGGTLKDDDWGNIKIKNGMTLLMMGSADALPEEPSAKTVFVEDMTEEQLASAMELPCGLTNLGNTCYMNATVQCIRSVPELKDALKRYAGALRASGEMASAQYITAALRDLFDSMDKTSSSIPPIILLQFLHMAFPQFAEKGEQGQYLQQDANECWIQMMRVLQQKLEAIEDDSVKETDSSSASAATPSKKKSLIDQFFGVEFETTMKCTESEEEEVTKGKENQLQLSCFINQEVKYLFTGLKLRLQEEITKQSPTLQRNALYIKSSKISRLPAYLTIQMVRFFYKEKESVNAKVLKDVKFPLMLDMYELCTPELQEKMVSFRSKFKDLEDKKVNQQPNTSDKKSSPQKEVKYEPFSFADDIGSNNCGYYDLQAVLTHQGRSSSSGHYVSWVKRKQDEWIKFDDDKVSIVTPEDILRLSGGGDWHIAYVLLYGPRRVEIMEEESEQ
Experimental: as §1

For `CC(=O)N[C@@H](CS)C(=O)O` [NAC, N-acetyl-L-cysteine], the “effect on b-AP15-triggered burst of ROS” value (A375 cells) was “inhibited” and the “effect on cytotoxicity of b-AP15” value (melanoma cell cultures) was “blocked”.
With `CCC[C@H](NC(=O)/C(C#N)=C/c1cccc(Br)n1)c1ccccc1` [WP1130] the “cell proliferation of A375 cells (MTS)” value (A375) was “drastically decreased cell proliferation”.
Work on `CN[C@@H]1C[C@H]2O[C@@](C)([C@@H]1OC)n1c3ccccc3c3c4c(c5c6ccccc6n2c5c31)C(=O)NC4` [staurosporine] yielded a viability [1] of 56%.
With `C=CC(=O)N1CC/C(=C\c2ccc(F)c([N+](=O)[O-])c2)C(=O)/C(=C/c2ccc(F)c([N+](=O)[O-])c2)C1` [VLX1570] the “UCHL5 activity (UCHL5-Ub-HA) in A375 cells” value (UCHL5) was “not UCHL5”, the melanoma cell death (A375 and Me1501 cells) was “induced to similar levels” and the “USP14 activity (USP14-Ub-HA) in A375 cells” value (USP14) was “blocked USP14”.
With `N#Cc1nc2c(nc1C#N)-c1ccc(Cl)cc1C2=O` [HBX41108] the “cell proliferation of A375 cells (MTS)” value (A375) was “drastically decreased cell proliferation”.
For `CC(C)[C@H](NC(=O)c1ccc2ccccc2n1)C(=O)N[C@@H](CC(=O)O)C(=O)COc1c(F)cccc1F` [QVD-OPh], the “effect on cytotoxicity of b-AP15” value (melanoma cell cultures) was “did not prevent the cytotoxic action of b-AP15”.
